The record followed here is ChEMBL document CHEMBL4400573, “Synthesis and structure-activity relationships of pyrazine-2-carboxamide derivatives as novel echinoderm microtubule-associated protein-like 4 (EML4)-anaplastic lymphoma kinase (ALK) inhibitors” (Bioorg Med Chem, 2019).

In brackets after ≈: the same amount, converted by molar mass.

One series relates to BaF3. The experiment in a line: Antiproliferative activity against mouse BAF3 cells expressing EML4-fused ALK variant 1 assessed as reduction in cell viability measured after 2 days by alamar blue assay. The series is classed as functional, cell-based. As to conditions: BaF3, 48 h. (In general: The colour change of resazurin is a common sign of viable cells or microbes.)
Series [1] is described as follows: Aqueous solubility of the compound in pH 6.8 JP2 fluid measured after 20 hrs by HPLC analysis. The series is classed as physicochemical.
Series [2] in a line: Inhibition of EML4-fused ALK variant 1 (unknown origin) expressed in mouse BAF3 cells using peptide substrate measured after 1 hr by HTRF assay. It is filed as cell-based, Homo sapiens.
Series [3] is described as follows: Permeability of the compound at pH 6.5 measured after 2 hrs by PAMPA. It is filed as ADME. As to conditions: read-out: permeability. For orientation: PAMPA measures passive passage across an artificial lipid membrane.
Series [4] in a line: Toxicity in Balb/c nude mouse xenografted with mouse 3T3 cells expressing EML4-fused ALK variant 1 assessed as effect on body weight at 10 mg/kg, po administered once daily for 5 days. The series is classed as organism-based. The settings on record: in vivo, 120 h.
Series [5] concerns NIH3T3. Nature of the series: Antitumor activity against mouse 3T3 cells expressing EML4-fused ALK variant 1 xenografted in Balb/c nude mouse assessed as tumor growth inhibition at 10 mg/kg, po administered once daily for 5 days measured post last dose relative to control. The series is classed as functional. On the set-up: Activity: scale not given: the % may be the effect or the level left.

Series [6] concerns NIH3T3. Nature of the series: Antitumor activity against mouse 3T3 cells expressing EML4-fused ALK variant 1 xenografted in Balb/c nude mouse assessed as tumor regression at 10 mg/kg, po administered once daily for 5 days measured post last dose relative to control. The series is classed as functional.

Usually IC50 stands for the concentration that gives 50% inhibition. The term solubility denotes the dissolved amount per volume that the medium holds. In the case of `CCc1nc(C(N)=O)c(Nc2cccc(S(C)(=O)=O)c2)nc1N[C@H]1CC[C@H](O)CC1`, the IC50 in the series with BaF3 is 68 nM; in series [2] it was 17 nM. This compound also yielded a solubility at 20 h in series [1] of 1.1 µM (≈ 0.477 µg/mL).
Regarding `CCc1nc(C(N)=O)c(Nc2ccc(N3CCC(N4CCN(C)CC4)CC3)cc2OC)nc1N[C@H]1CC[C@H](O)CC1`, the IC50 is 85 nM with BaF3 and 8.9 nM in series [2]. In series [1], the solubility at 20 h is at least 100 µM.
As to `CCc1nc(C(N)=O)c(Nc2ccc(N3CCC(N4CCN(C)CC4)CC3)c(OC)c2)nc1N[C@H]1CC[C@H](O)CC1`, the Papp at 2 h in series [3] is 1.1 ×10⁻⁶ cm/s. Moreover, the IC50 with BaF3 amounted to 9.5 nM; in series [2], 0.37 nM. Further, the Activity result in series [4] is on record as “Toxic”; in the series on NIH3T3 [5], 34%. Besides, the solubility at 20 h in series [1] is at least 100 µM.
`CS(=O)(=O)c1cccc(Nc2nc(N[C@H]3CC[C@H](O)CC3)c(Br)nc2C(N)=O)c1` came in with a 50% inhibitory concentration (IC50) in series [2] of 82 nM.
`CCc1nc(C(N)=O)c(Nc2ccc(N3CCC(N4CCN(C)CC4)CC3)c(OC)c2)nc1N[C@H]1CC[C@H](OC)CC1`: the Papp at 2 h in series [3] came out at 21 ×10⁻⁶ cm/s. The Activity in the series on NIH3T3 [6] is on record as 62%; in series [4], “Toxic”. Further, the 50% inhibitory concentration (IC50) turned out to be 9.7 nM in the series on BaF3 and 1 nM in series [2].
Regarding `CCc1nc(C(N)=O)c(Nc2ccc(N3CCC(N4CCN(C)CC4)CC3)c(OC)c2)nc1N(C)CC`, the figures for the 50% inhibitory concentration (IC50) (in the series with BaF3; in series [2]) were 31 nM and 6.6 nM, respectively.
The like results for `CCc1nc(C(N)=O)c(Nc2ccc(N3CCC(N4CCN(C)CC4)CC3)c(OC)c2)nc1NC(C)C` were, in that order, 12 nM and 0.8 nM.
In the case of `CCNc1nc(Nc2ccc(N3CCC(N4CCN(C)CC4)CC3)c(OC)c2)c(C(N)=O)nc1CC`, the IC50 with BaF3 came out at 16 nM; in series [2] it was 2.5 nM.
For `CS(=O)(=O)c1cccc(Nc2nc(N[C@H]3CC[C@H](O)CC3)c(C3CC3)nc2C(N)=O)c1`, the IC50 in series [2] is 37 nM.
In turn, `CCCc1nc(C(N)=O)c(Nc2cccc(S(C)(=O)=O)c2)nc1N[C@H]1CC[C@H](O)CC1` showed an IC50 in series [2] of 23 nM.
The compound `Cc1nc(C(N)=O)c(Nc2cccc(S(C)(=O)=O)c2)nc1N[C@H]1CC[C@H](O)CC1` returned an IC50 in series [2] of 51 nM.
On to `CS(=O)(=O)c1cccc(Nc2nc(N[C@H]3CC[C@H](O)CC3)cnc2C(N)=O)c1`, for which 270 nM corresponded to half-maximal inhibition in series [2] (IC50).
In series [2], `CS(=O)(=O)c1cccc(Nc2nc(N[C@H]3CC[C@H](O)CC3)c(Cl)nc2C(N)=O)c1` registered an IC50 of 82 nM.
Turning to `CCc1nc(C(N)=O)c(Nc2ccc(N3CCC(N4CCN(C)CC4)CC3)c(OC)c2)nc1N[C@@H]1CCCC[C@H]1O` (racemic), the IC50 in the series on BaF3 was found to be 48 nM; in series [2], 13 nM.
As for `COc1cc(N2CCC(N3CCN(C)CC3)CC2)ccc1Nc1ncnc(Nc2ccccc2S(=O)(=O)C(C)C)n1` [ASP-3026], the Activity result in series [4] is reported as “Non-Toxic”. In the series with NIH3T3 [5] (Mus musculus, NIH3T3, po, 120 h, read-out: TGI), the inhibition in vivo at 10 mg/kg was 81%. In series [2], this compound displayed an IC50 of 17 nM.
